Activity calls are given as the source filed them. No cut-off for these calls is given here.
Key:
[1] = Activation of IRF-mediated immune response in human THP1-Dual KO-STING cells co-expressing ISRE reporter assessed as normalized luciferase gene expression by measuring relative luciferase units at 50 uM incubated for 24 hrs by QUANTI Luc based microplate reader method; type: functional
[2] = system: THP1-Dual; assay: Cytotoxicity against human wild type THP1-Dual cells assessed as residual cell viability by CellTiter96 Aqueous One Solution Cell Proliferation Assay; type: functional; design: concentration or dose not given beside the values
[3] = Cytotoxicity against human THP1-Dual KO-STING cells assessed as residual cell viability by CellTiter96 Aqueous One Solution Cell Proliferation Assay; type: functional; design: concentration or dose not given beside the values
[4] = target: Stimulator of interferon genes protein (Homo sapiens, UniProt Q86WV6); conditions: THP1-Dual, filed as activator, dose 50.0 µM, time 24.0 hrs
[5] = Terminal half life in BALB/c mouse at 3 mg/kg, iv by LC-MS/MS analysis; type: ADME, organism-based; conditions: in vivo, read-out: beta t1/2 (converted)
[6] = Volume of distribution at steady state in BALB/c mouse at 3 mg/kg, iv by LC-MS/MS analysis; type: ADME, organism-based; conditions: in vivo, read-out: Vdss
[7] = Clearance in BALB/c mouse at 3 mg/kg, iv by LC-MS/MS analysis; type: ADME, organism-based; conditions: BALB/c, in vivo
[8] = AUClast in BALB/c mouse at 3 mg/kg, iv by LC-MS/MS analysis; type: ADME, organism-based; design: time 0 - last, dose 3 mg/kg, route iv; conditions: in vivo
[9] = AUCinfinity in BALB/c mouse at 3 mg/kg, iv by LC-MS/MS analysis; type: ADME, organism-based; design: time infinity, dose 3 mg/kg, route iv; conditions: BALB/c, in vivo
[10] = Induction of IP-10 secretion in human THP-1 cells assessed as maximal efficacy by ELISA relative to control; type: functional
[11] = target: Nuclear factor NF-kappa-B complex (Homo sapiens) (UniProt Q00653+P19838+Q04206); assay: Activation of NF-kappaB mediated pro-inflammatory effector proteins in human THP-1 cells at 2 to 10 nM incubated for 4 hrs by western blot analysis; type: cell-based; conditions: filed as activator, dose 2-10 nM
[12] = system: RAW264.7; assay: Activation of NF-kappaB mediated pro-inflammatory effector proteins in mouse RAW264.7 cells at 100 to 500 nM for incubated for 3 hrs by western blot analysis; type: cell-based; conditions: filed as activator, dose 100-500 nM

Sequence of Stimulator of interferon genes protein (Q86WV6 whole entry): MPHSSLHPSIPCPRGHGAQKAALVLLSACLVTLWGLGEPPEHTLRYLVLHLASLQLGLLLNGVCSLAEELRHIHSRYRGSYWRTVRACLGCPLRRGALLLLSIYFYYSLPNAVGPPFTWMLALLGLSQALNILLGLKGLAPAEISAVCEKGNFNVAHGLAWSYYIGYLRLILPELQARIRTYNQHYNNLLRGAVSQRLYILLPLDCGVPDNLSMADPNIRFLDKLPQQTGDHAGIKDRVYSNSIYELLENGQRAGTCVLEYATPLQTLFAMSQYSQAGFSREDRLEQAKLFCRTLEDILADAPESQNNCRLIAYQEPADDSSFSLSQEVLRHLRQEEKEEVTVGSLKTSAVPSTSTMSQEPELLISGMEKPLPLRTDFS
Sequence of Nuclear factor NF-kappa-B complex (Homo sapiens) (P19838 whole entry, looked up): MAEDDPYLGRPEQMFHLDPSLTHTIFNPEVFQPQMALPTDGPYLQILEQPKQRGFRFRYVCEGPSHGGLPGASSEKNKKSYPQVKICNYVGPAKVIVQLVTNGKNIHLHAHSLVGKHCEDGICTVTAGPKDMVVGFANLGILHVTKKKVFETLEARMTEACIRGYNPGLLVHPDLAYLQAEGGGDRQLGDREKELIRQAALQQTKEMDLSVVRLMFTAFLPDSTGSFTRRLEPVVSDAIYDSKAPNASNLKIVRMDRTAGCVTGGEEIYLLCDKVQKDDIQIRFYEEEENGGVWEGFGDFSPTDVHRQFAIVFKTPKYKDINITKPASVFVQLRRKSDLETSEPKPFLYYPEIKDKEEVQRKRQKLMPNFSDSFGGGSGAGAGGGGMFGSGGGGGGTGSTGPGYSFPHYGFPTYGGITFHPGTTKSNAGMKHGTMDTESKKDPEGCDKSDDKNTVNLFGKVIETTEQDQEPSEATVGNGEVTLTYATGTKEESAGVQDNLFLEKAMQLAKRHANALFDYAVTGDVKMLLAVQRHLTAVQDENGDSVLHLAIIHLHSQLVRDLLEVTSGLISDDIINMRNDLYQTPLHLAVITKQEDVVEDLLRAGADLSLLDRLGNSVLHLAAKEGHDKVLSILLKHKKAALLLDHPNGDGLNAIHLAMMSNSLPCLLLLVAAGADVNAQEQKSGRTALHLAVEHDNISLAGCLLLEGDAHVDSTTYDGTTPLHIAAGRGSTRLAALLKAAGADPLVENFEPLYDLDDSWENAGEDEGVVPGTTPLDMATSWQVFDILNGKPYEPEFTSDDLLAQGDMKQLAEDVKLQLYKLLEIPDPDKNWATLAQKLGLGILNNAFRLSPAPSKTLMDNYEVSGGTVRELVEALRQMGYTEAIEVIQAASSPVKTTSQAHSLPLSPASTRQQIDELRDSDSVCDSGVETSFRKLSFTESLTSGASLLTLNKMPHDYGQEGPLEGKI
Sequence of Nuclear factor NF-kappa-B complex (Homo sapiens) (Q00653 whole entry, looked up): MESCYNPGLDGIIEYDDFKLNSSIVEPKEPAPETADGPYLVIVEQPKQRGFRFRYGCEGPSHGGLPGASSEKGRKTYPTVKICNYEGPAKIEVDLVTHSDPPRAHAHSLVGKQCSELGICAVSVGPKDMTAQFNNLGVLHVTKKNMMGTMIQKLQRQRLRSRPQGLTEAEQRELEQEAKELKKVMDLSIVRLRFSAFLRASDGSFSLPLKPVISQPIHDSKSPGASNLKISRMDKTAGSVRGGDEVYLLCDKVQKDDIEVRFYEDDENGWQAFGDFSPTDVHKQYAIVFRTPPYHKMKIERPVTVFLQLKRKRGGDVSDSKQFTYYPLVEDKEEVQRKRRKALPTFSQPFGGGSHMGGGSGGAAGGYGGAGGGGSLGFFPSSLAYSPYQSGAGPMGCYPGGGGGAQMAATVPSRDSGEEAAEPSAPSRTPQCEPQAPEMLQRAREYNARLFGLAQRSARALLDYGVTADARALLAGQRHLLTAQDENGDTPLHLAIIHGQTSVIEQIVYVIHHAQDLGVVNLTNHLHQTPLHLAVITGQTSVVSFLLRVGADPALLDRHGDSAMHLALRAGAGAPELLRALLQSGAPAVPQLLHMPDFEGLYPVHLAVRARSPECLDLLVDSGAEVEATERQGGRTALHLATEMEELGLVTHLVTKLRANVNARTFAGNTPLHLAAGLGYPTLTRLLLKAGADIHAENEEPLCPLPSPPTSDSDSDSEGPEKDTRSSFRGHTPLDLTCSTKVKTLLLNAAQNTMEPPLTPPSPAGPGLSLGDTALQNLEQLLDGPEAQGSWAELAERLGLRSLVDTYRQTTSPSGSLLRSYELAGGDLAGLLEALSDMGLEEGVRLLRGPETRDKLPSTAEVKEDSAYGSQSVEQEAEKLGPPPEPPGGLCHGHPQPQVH
Sequence of Nuclear factor NF-kappa-B complex (Homo sapiens) (Q04206 whole entry, looked up): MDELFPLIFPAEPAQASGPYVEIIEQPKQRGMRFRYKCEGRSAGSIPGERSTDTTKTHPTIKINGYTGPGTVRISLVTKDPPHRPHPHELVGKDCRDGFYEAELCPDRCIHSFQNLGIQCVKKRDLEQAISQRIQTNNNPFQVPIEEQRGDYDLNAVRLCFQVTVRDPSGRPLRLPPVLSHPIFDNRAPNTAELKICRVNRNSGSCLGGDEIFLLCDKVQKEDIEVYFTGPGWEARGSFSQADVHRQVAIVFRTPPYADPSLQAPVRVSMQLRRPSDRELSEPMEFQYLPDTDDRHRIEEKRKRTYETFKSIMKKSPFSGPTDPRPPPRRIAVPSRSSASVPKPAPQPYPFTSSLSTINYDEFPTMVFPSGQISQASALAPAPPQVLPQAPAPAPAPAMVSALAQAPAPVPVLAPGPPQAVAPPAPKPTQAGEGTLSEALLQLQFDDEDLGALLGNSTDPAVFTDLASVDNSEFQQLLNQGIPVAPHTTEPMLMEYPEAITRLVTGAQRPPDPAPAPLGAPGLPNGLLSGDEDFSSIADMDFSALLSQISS

SMILES | RLU [1] | Activity [2] [%] | Activity [3] [%] | RLU [4] | other results
Cc1cc(C(=O)Nc2nc3cc(C(N)=O)ccc3n2CCCCNC(=O)OC(C)(C)C)n(C(C)C)n1 | 0.8 | 97.1 | 100.1 | 0.9 | –
CCn1nc(C)cc1C(=O)Nc1nc2cc(C(N)=O)ccc2n1CCCCNC(=O)c1cccnc1 | 1.1 | 98.9 | 96.4 | 1 | –
CCn1nc(C)cc1C(=O)NCCCCCn1c(NC(=O)c2cc(C)nn2CC)nc2cc(C(N)=O)ccc21 | 0.3 | 44.9 | 77.5 | 1 | –
CCn1nc(C)cc1C(=O)Nc1nc2cc(C(=O)O)ccc2n1CCCCn1c(NC(=O)c2cc(C)nn2CC)nc2cc(C(=O)O)ccc21 | 0.6 | 113.1 | 101.6 | 0.6 | –
CCn1nc(C)cc1C(=O)Nc1nc2cc(C(N)=O)cc(OC)c2n1C/C=C/Cn1c(NC(=O)c2cc(C)nn2CC)nc2cc(C(N)=O)cc(OCCCN)c21 | 0.7 | – | – | 101 | –
C=CCn1nc(C(=O)Nc2nc3cc(C(N)=O)ccc3n2CCCCn2c(NC(=O)c3cc(C)n(CC=C)n3)nc3cc(C(N)=O)ccc32)cc1C | 0.9 | 108.6 | 108.3 | 0.8 | –
Cc1cc(C(=O)Nc2nc3cc(C(N)=O)ccc3n2CCCCNC(=O)OC(C)(C)C)n(C)n1 | 1.2 | 96.7 | 108.2 | 0.9 | –
NC(=O)c1ccc2c(c1)nc(NC(=O)c1n[nH]c3ccccc13)n2C[C@@H](O)c1ccccc1 | 1.3 | 91.2 | 100.9 | 0.9 | –
CCn1nc(C)cc1C(=O)Nc1nc2cc(C(N)=O)ccc2n1CCCCNC(=O)OC(C)(C)C | 0.6 | 97.6 | 78.4 | 21 | –
Cc1cc(C(=O)Nc2nc3cc(C(N)=O)ccc3n2CCCCNC(=O)OC(C)(C)C)n(C(C)(C)C)n1 | 1.2 | 83.5 | 82.7 | 1.1 | –
CCn1nc(C)cc1C(=O)Nc1nc2cc(C(N)=O)ccc2n1CCCCNC(=O)c1cc(C)nn1C | 0.9 | 66 | 105.4 | 93.3 | –
CCn1nc(C)cc1C(=O)NCCCOc1cc(C(N)=O)cc2nc(NC(=O)c3cc(C)nn3CC)n(C)c12 | 0.9 | 94 | 113 | 99.1 | –
CCn1nc(C)cc1C(=O)Nc1nc2cc(C(N)=O)ccc2n1CCCCNC(=O)c1ccccc1 | 0.2 | 27.4 | 64.2 | 7 | –
Cn1cc(C(=O)Nc2nc3cc(C(N)=O)ccc3n2C[C@@H](O)c2ccccc2)c(C(F)(F)F)n1 | 1.1 | 89.4 | 92.4 | 0.8 | –
CCn1nc(C)cc1C(=O)/N=c1\[nH]c2cc(C(N)=O)ccc2n1C[C@@H](O)c1ccccc1 | 0.7 | 96 | 76.9 | 2 | –
CCn1nc(C)cc1C(=O)Nc1nc2cc(C(N)=O)ccc2n1CCCCN | 1 | 95.2 | 85.5 | 0.8 | –
CCn1nc(C)cc1C(=O)Nc1nc2cc(C(N)=O)cc(OC)c2n1CCCCNC(=O)OC(C)(C)C | 0.5 | 72.1 | 90 | 2.7 | –
CCn1nc(C)cc1C(=O)NCCCCn1c(NC(=O)c2cc(C)nn2CC)nc2cc(C(N)=O)ccc21 | 0.9 | 68.2 | 88.2 | 104 | half-life [5]: 35.4 min; Vd [6]: 1.8 L/kg; clearance [7]: 158 mL/min/kg; AUC(0-t) [8]: 310 ng·h/mL; AUC(0-inf) [9]: 320 ng·h/mL
C=CCn1nc(C(=O)Nc2nc3cc(C(N)=O)ccc3n2CCCCNC(=O)OC(C)(C)C)cc1C | 1.4 | 96.1 | 103.9 | 0.9 | –
NC(=O)c1ccc2c(c1)nc(NC(=O)c1ccoc1)n2C[C@@H](O)c1ccccc1 | 0.9 | 88 | 94 | 0.5 | –
CCn1nc(C)cc1C(=O)/N=c1\[nH]c2cc(C(N)=O)cc(OC)c2n1C/C=C/Cn1/c(=N/C(=O)c2cc(C)nn2CC)[nH]c2cc(C(N)=O)cc(OCCCN3CCOCC3)c21 | 0.7 | 83.1 | – | 68.6 | Emax [10]: 136%; Activity [11]: Active; Activity [12]: Active

SMILES | RLU [1] | Activity [2] [%] | Activity [3] [%] | RLU [4] | other results
CCn1nc(C)cc1C(=O)Nc1nc2cc(C(N)=O)ccc2n1CCCNC(=O)OC(C)(C)C | 0.9 | 90.2 | 88 | 20 | –
CC(C)(C)OC(=O)NCCCCn1c(NC(=O)c2cc3ccccc3o2)nc2cc(C(N)=O)ccc21 | 0.7 | 92.7 | 98 | 0.8 | –
CCn1nc(C)cc1C(=O)Nc1nc2cc(C(=O)OC)ccc2n1CCCCn1c(NC(=O)c2cc(C)nn2CC)nc2cc(C(=O)OC)ccc21 | 0.8 | 122 | 117.9 | 0.8 | –
NC(=O)c1ccc2c(c1)nc(NC(=O)c1cc3ccccc3o1)n2CCCCn1c(NC(=O)c2cc3ccccc3o2)nc2cc(C(N)=O)ccc21 | 1.3 | 103 | 96.8 | 0.9 | –
CCn1nc(C)cc1C(=O)Nc1nc2cc(C(N)=O)ccc2n1CCCCNC(=O)C(C)(C)C | 0.4 | 103.7 | 58.6 | 4.8 | –
CCn1nc(C)cc1C(=O)Nc1nc2cc(C(N)=O)ccc2n1CCCCNC(=O)c1ccn[nH]1 | 1.3 | 99.9 | 109.2 | 0.9 | –
CCn1nc(C)cc1C(=O)Nc1nc2cc(C(N)=O)cc(OCCCNC(=O)OC(C)(C)C)c2n1C | 0.8 | 80.1 | 110 | 127 | –
CCn1nc(C)cc1C(=O)NCCCn1c(NC(=O)c2cc(C)nn2CC)nc2cc(C(N)=O)ccc21 | 0.4 | 40.6 | 82.3 | 13.7 | –
CCn1nc(C)cc1C(=O)Nc1nc2cc(C(N)=O)ccc2n1CCCCCNC(=O)OC(C)(C)C | 0.6 | 54.9 | 87 | 16.3 | –
CCn1nc(C)cc1C(=O)Nc1nc2cc(C(N)=O)cc(OCCCN)c2n1C | 1 | 88 | 110 | 101 | –
CCn1nc(C(F)(F)F)cc1C(=O)Nc1nc2cc(C(N)=O)ccc2n1C[C@@H](O)c1ccccc1 | 1 | 88.1 | 91 | 0.7 | –
Nc1nc2c(ncn2[C@@H]2O[C@@H]3COP(=O)(O)O[C@H]4[C@@H](O)[C@H](n5cnc6c(N)ncnc65)O[C@@H]4COP(=O)(O)O[C@@H]2[C@@H]3O)c(=O)[nH]1 | – | 76.5 | – | – | –
Cn1cc(C(=O)Nc2nc3cc(C(N)=O)ccc3n2CCCCn2c(NC(=O)c3cn(C)nc3C(F)(F)F)nc3cc(C(N)=O)ccc32)c(C(F)(F)F)n1 | 0.8 | 96.7 | 115 | 7.7 | –
NC(=O)c1ccc2c(c1)nc(NC(=O)c1cc3ccccc3o1)n2C[C@@H](O)c1ccccc1 | 0.8 | 90.2 | 105.5 | 0.8 | –
CC(C)(C)OC(=O)NCCCCn1c(NC(=O)c2ccoc2)nc2cc(C(N)=O)ccc21 | 1 | 90.3 | 96.2 | 0.9 | –
CCn1nc(C)cc1C(=O)Nc1nc2cc(C(N)=O)cc(OC)c2n1C/C=C/CNC(=O)OC(C)(C)C | 0.7 | 89.5 | 87.7 | 13.7 | –
CCn1nc(C(F)(F)F)cc1C(=O)Nc1nc2cc(C(N)=O)ccc2n1CCCCNC(=O)OC(C)(C)C | 1.1 | 99.4 | 89.9 | 0.8 | –
NC(=O)c1ccc2c(c1)nc(NC(=O)c1nn(C3CCCCO3)c3ccccc13)n2C[C@@H](O)c1ccccc1 (stereo partly specified) | 0.9 | 95.8 | 93.4 | 0.4 | –
CCn1nc(C)cc1C(=O)Nc1nc2cc(C(N)=O)ccc2n1CCCCNC(C)=O | 0.3 | 40.8 | 74.9 | 0.4 | –
Cn1cc(C(=O)Nc2nc3cc(C(N)=O)ccc3n2CCCCNC(=O)OC(C)(C)C)c(C(F)(F)F)n1 | 0.9 | 91.9 | 90.6 | 0.8 | –
